Results on five compounds are retold here after patent US9018234B2, “Fluoro-substituted 2-aryl-3,5-dicyano-4-indazolyl-6-methyl-1,4-dihydropyridines and uses thereof” (Bayer Intellectual Property GmbH, priority 2009, dated 2015).

A short description of this data set: Caco-2 permeability assay. The class given is in vitro ADME. The settings on record: human, apical to basolateral, 2 μM test concentration, 2 h at 37° C., read-out: Caco-2 permeability PappA-B. The source says:
Caco-2 Permeability Assay:
The in vitro permeation of a test compound across a Caco-2 cell monolayer is a well-established assay system to predict the permeability from the gastro-intestinal tract [cf. P. Artursson and J. Karlsson: Correlation between oral drug absorption in humans and apparent drug permeability coefficients in human intestinal epithelial (Caco-2) cells, Biochem. Biophys. 175 (3), 880-885 (1991)]. The permeability of the compounds of the present invention in such Caco-2 cells was determined as described below:
Human Caco-2 cells (ACC No. 169, DSMZ, German Collection of Microorganisms and Cell Cultures, Braunschweig, Germany) are seeded on 24-well insert plates and are allowed to grow for 14-16 days. For permeability studies, the test compounds are dissolved in DMSO and diluted to the final test concentration of 2 μM with transport buffer [Hanks' Buffered Salt Solution, Gibco/Invitrogen, further supplemented with glucose (final concentration 19.9 mM) and HEPES (final concentration 9.8 mM)]. For determination of the apical to basolateral permeability (PappA-B), the test compound solution is added to the apical side of the cell monolayer and transport buffer to the basolateral side of the monolayer; for determination of the basolateral to apical permeability (PappB-A), the test compound solution is added to the basolateral side of the cell monolayer and transport buffer to the apical side of the monolayer. Samples are taken from the donor compartment at the beginning of the experiment to confirm mass balance. After an incubation of 2 h at 37° C., samples are taken from both compartments. Samples are analyzed by LC-MS/MS, and the apparent permeability coefficients are calculated. Lucifer Yellow permeability is assayed for each cell monolayer to ensure cell monolayer integrity, and the permeability of Atenolol (low permeability marker) and Sulfasalazine (marker for active excretion) is determined for each batch as quality control.
Representative results from this assay are listed in Table 2 below together with corresponding data for two structural analogs having an unsubstituted methyl group in 6-position of the 1,4-dihydropyridine ring (comparative Examples A and B, see experimental section above; disclosed generically in WO 2008/071451-A1): […]
A general note: Caco-2 monolayers are a common model of the intestinal barrier.
For `Cc1n[nH]c2ccc(C3C(C#N)=C(c4ccc(F)cc4)NC(C(F)F)=C3C#N)cc12` (racemic) [Example 6], the Papp at 2 h, 2 μM was determined as 15 ×10⁻⁶ cm/s. For `Cc1n[nH]c2ccc(C3C(C#N)=C(c4ccc(F)cc4)NC(C(F)(F)F)=C3C#N)cc12` (racemic) [Example 13] the value was 15.8 ×10⁻⁶ cm/s; for `COc1ccc(C2=C(C#N)C(c3ccc4[nH]nc(C)c4c3)C(C#N)=C(C)N2)cc1` (racemic) [Example A, 2-(4-Methoxyphenyl)-6-methyl-4-(3-methyl-1H-indazol-5-yl)-1,4-dihydropyridine-3,5-dicarbonitrile, reference compound], 9.9 ×10⁻⁶ cm/s. With `CC1=C(C#N)C(c2ccc3[nH]nc(C)c3c2)C(C#N)=C(c2ccc(F)cc2)N1` (racemic) [Example B, 2-(4-Fluorophenyl)-6-methyl-4-(3-methyl-1H-indazol-5-yl)-1,4-dihydropyridine-3,5-dicarbonitrile, reference compound], the Papp at 2 h, 2 μM was found to be 6.2 ×10⁻⁶ cm/s.

`COc1ccc(C2=C(C#N)C(c3ccc4[nH]nc(C)c4c3)C(C#N)=C(C(F)F)N2)cc1` (centres unmarked) [Example 8]: the Papp at 2 h, 2 μM was determined as 17 ×10⁻⁶ cm/s.
